Assay results from PMC4669722, “Antitumour potential of BPT: a dual inhibitor of cdk4 and tubulin polymerization” (Cell Death & Disease, 2015).
Where two headings read alike, the source gives them in different places.

Tests used:
[1] = molecular target: Cdk9-cyclin T1 (Homo sapiens, UniProt P50750); experiment: In vitro kinase assay, Cdk9-cyclin T1 (in-house); format: biochemical; settings: three independent experiments; read-out: IC50 (mean±S.D.), Cdk9-cyclin T1
Description: (§1) The in vitro kinase assays for testing against Cdk4-cyclin D1, Cdk2-cyclin A, Cdk1-cyclin B1 and Cdk9-cyclin T1 were performed in-house. The methodology and results have been reported previously.[20], [30], [31], [32], [45] The kinase profiling for 58 representative kinases was carrried out commercially at Millipore Bioscience Division, Livingston, UK.

[2] = system: A549 (NSCLC; p53+, pRb+); experiment: Cell proliferation (MTT) assay, A549; format: cell-based; settings: Homo sapiens, 48 h, read-out: IC50 cell growth inhibition, A549
Description: (§2) All 10 human cancer cell lines were maintained at 37 °C in 5% CO2 in RPMI-1640 medium, supplemented with 10% foetal calf serum and 100 μg/ml normocin. The 10 cancer cell lines used for screening were all obtained from ATCC (Manassas, VA, USA); they were the NSCLC (a form of cancer that is resistant to chemotherapy) lines: NCI-H460 (pRb^+, p53^+), A549 (pRb^+, p53^+), Calu-1 (pRb^+, p53-null), NCI-H1299 (pRb^+, p53-null), NCI-H358 (pRb-null, p53-null); the colon cancer line LS174T (pRb^+, p53^+); the prostate cancer line PC-3 (pRb^+, p53-null); the pancreatic cancer line MiaPaca (pRb^+, p53-mutant). The genotypes within brackets indicate the status of the tumour suppressor proteins pRb and p53. The mouse embryonic normal hepatic cell line (BNL CL2) and its SV40 large T-antigen-transformed counterpart cell line (BNL SV A.8) were also purchased from ATCC. The large T-antigen inactivates the tumour suppressor proteins p53 and pRb. The detailed procedure of cell proliferation (MTT) assay and IC50 determination was described previously.[32]

[3] = system: MiaPaCa (pancreatic; p53His273mut, pRb+); experiment: Cell proliferation (MTT) assay, MiaPaCa; format: cell-based; settings: Homo sapiens, MIA PaCa-2, 48 h, read-out: IC50 cell growth inhibition, MiaPaCa
Description: as §2

[4] = system: pBluescript plasmid DNA; experiment: EtBr displacement assay; format: binding; settings: 1.3 μM EtBr
Description: The assays were performed in a 96-well plate with clear bottom (Costar, Washington, DC, USA). The assay involved the addition of 10 μl of 10 × concentrated stock solution of compounds (dissolved in DMSO and further diluted in EtBr displacement assay buffer) to 90 μl of reaction mixture containing 6 μg of purified pBlueScript DNA and 1.3 μM EtBr in EtBr displacement assay buffer with final pH 7.4. Equivalent amounts of DMSO were added to the vehicle controls. In addition to control samples (DNA+EtBr), test samples (DNA+EtBr+test compounds), blank 1 (EtBr only), blank 2 (DNA only), wells containing DNA and compound were also prepared to test any change in the background fluorescence readings. The reduction in relative fluorescence counts was monitored ([…]) and recorded after 1 min equilibration time. Fascaplysin and actinomycin D, which are known to intercalate d-s DNA, were used as standard compounds in assay. The mean control and test readings were corrected by subtracting blank readings. The percentage fluorescence in the test samples in reaction with control samples was calculated by using following formula: […]

[5] = molecular target: Cdk2-cyclin A (Homo sapiens, UniProt P24941); experiment: In vitro kinase assay, Cdk2-cyclin A (in-house); format: biochemical
Description: as §1

[6] = system: NCI-H460 (NSCLC; p53+, pRb+); experiment: Cell proliferation (MTT) assay, NCI-H460; format: cell-based; settings: Homo sapiens, 48 h, read-out: IC50 cell growth inhibition, NCI-H460
Description: as §2

[7] = molecular target: Cdk1-cyclin B1 (Homo sapiens, UniProt P06493); experiment: In vitro kinase assay, Cdk1-cyclin B1 (in-house); format: biochemical; settings: three independent experiments; read-out: IC50 (mean±S.D.), Cdk1-cyclin B1
Chain of Cdk1-cyclin B1 (P06493 whole entry): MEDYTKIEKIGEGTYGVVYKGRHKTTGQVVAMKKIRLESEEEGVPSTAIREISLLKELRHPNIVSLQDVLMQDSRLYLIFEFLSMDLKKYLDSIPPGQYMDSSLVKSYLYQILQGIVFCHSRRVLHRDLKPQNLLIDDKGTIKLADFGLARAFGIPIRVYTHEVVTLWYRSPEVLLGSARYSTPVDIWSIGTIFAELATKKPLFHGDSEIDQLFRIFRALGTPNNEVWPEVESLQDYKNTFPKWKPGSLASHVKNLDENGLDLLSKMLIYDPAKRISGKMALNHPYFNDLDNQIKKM
Chain of Cdk1-cyclin B1 (P14635 whole entry partner): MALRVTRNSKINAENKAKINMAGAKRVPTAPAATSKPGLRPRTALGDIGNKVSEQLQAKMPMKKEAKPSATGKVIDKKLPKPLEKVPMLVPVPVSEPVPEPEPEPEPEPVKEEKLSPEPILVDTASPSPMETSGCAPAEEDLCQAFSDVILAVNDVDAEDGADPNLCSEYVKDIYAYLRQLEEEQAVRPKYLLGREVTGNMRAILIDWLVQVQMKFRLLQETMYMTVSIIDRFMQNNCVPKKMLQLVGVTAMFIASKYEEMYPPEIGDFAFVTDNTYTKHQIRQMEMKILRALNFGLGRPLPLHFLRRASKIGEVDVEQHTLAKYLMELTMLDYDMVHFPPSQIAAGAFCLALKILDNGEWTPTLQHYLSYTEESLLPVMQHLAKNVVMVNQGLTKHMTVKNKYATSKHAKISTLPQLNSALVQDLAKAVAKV
Description: as §1

[8] = system: PC-3 (prostate; p53 null, pRb+); experiment: Cell proliferation (MTT) assay, PC-3; format: cell-based; settings: Homo sapiens, 48 h, read-out: IC50 cell growth inhibition, PC-3
Description: as §2

[9] = system: Calu-1 (NSCLC; p53 null, pRb+); experiment: Cell proliferation (MTT) assay, Calu-1; format: cell-based, human; settings: Homo sapiens, Calu-1; 48 h, MTT; read-out: IC50 cell growth inhibition, Calu-1
Description: as §2

[10] = system: NCI-H358 (NSCLC; p53 null, pRb null); experiment: Cell proliferation (MTT) assay, NCI-H358; format: cell-based; settings: Homo sapiens, 48 h, read-out: IC50 cell growth inhibition, NCI-H358
Description: as §2

[11] = molecular target: T1, Cdk4-cyclin D1 (Homo sapiens, UniProt P11802); experiment: In vitro kinase assay, Cdk4-cyclin D1 (in-house); format: biochemical; settings: three independent experiments; read-out: IC50 (mean±S.D.), Cdk4-cyclin D1
T1 sequence (P11802 whole entry): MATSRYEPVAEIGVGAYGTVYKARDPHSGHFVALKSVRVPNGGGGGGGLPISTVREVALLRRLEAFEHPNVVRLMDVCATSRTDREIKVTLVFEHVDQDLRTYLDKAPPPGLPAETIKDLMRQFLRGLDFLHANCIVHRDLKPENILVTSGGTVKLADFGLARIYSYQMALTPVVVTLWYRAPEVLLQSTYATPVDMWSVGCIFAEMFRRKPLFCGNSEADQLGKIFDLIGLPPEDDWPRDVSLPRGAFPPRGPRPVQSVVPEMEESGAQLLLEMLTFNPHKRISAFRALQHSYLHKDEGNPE
T1 sequence (P24385 whole entry partner): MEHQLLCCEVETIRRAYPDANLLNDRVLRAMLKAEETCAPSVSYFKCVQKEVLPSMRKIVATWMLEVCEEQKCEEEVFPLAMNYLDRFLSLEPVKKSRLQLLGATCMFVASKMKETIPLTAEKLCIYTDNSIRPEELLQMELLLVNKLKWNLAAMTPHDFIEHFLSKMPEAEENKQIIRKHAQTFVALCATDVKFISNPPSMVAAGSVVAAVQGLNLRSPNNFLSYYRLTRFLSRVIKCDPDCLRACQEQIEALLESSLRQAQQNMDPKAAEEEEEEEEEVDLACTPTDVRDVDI
Description: as §1

[12] = system: BNL SV A.8 (mouse hepatic; SV40-mediated transformed cells); experiment: Cell proliferation (MTT) assay, BNL SV A.8; format: cell-based; settings: Mus musculus; 48 h, MTT; read-out: IC50 cell growth inhibition, BNL SV A.8
Description: as §2

[13] = system: BNL CL2 (mouse normal hepatic cells); experiment: Cell proliferation (MTT) assay, BNL CL2; format: cell-based; settings: Mus musculus, BNL CL.2; 48 h, MTT; read-out: IC50 cell growth inhibition, BNL CL2
Description: as §2

[14] = system: NCI-H1299 (NSCLC; p53 null, pRb+); experiment: Cell proliferation (MTT) assay, NCI-H1299; format: cell-based; settings: Homo sapiens, 48 h, read-out: IC50 cell growth inhibition, NCI-H1299
Description: as §2

[15] = system: LS174T (colorectal carcinoma; p53+, pRb+); experiment: Cell proliferation (MTT) assay, LS174T; format: cell-based; settings: Homo sapiens, 48 h, read-out: IC50 cell growth inhibition, LS174T
Description: as §2

[16] = system: Calu-1 cells; design: method as in PMID 16493461; settings: cited from earlier work
[17] = molecular target: T1, Cdk4-cyclin D1; design: method as in PMID 12941311, PMID 15165138; settings: cited from earlier work
[18] = system: pBluescript plasmid DNA; experiment: Topoisomerase I catalysed DNA relaxation or unwinding assay; format: biochemical
Description: For assay, 5 nM supercoiled pBluescript d-s plasmid DNA and 10 U of topoisomerase-I active enzyme were used in each reaction well. To ensure that the assay determines the DNA-intercalating property of compounds and not topoisomerase I inhibition, in a parallel experiment relaxed plasmid DNA was first prepared by treating with topo I enzyme for 30 min and then used as an initial substrate for the assay. DNA relaxation assays were performed in the presence or absence of compounds in 40 μl of DNA unwinding assay buffer. After 30 min incubation at 37 °C, reaction mixtures were treated with 3 μl of 250 mM EDTA and extracted with phenol/chloroform. The DNA was dissolved in tris-EDTA buffer, pH 8.0. The samples (20 μl) were treated with 2 μl of 2.5% SDS, mixed with 2.5 μl agarose gel loading buffer (10x) and subjected to electrophoresis on a 0.8% agarose gel without EtBr (separating the DNA in the presence of EtBr would convert the relaxed DNA into the supercoiled form). After the electrophoretic separation, DNA bands were stained with 1 μg/ml EtBr and visualized using a UV illuminator. The compounds were compared with fascaplysin, which is a known DNA-intercalating molecule. Camptothecin, which is a known topoisomerase- I inhibitor, was used to test the activity and inhibition of enzyme.

[19] = three independent experiments, read-out: IC50 (mean±S.D.), Cdk2-cyclin A

Chain of Cdk9-cyclin T1 (P50750 whole entry): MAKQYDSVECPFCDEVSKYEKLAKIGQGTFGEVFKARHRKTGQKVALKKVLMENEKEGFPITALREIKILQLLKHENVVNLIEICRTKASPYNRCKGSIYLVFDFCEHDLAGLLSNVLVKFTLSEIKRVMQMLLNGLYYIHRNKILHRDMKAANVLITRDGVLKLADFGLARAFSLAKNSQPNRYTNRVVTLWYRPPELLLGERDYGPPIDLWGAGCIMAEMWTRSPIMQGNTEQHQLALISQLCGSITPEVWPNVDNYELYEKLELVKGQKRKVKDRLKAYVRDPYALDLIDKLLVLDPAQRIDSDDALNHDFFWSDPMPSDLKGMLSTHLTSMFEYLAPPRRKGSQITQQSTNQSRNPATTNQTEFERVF
Chain of Cdk9-cyclin T1 (O60563 whole entry partner): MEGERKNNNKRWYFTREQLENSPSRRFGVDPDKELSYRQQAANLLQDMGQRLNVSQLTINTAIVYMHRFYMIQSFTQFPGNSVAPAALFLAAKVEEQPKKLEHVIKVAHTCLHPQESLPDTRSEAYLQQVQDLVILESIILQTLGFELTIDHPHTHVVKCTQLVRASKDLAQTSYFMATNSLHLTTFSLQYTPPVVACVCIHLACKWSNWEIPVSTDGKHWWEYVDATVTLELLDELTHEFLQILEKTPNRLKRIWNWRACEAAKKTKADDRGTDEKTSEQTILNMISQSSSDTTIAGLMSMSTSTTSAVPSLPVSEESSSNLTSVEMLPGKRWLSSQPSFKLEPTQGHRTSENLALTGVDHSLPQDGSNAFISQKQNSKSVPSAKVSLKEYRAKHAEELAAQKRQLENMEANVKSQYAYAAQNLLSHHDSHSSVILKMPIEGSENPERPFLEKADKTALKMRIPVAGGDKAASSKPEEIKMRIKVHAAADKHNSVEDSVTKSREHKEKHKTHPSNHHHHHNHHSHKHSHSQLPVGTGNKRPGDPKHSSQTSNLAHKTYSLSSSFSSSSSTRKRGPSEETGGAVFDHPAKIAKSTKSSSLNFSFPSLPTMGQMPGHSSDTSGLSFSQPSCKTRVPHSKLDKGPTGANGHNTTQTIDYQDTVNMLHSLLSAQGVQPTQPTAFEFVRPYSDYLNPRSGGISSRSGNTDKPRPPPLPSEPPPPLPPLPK

With `COc1ccccc1C(=O)N1CCc2c([nH]c3ccccc23)C1` [CA198] the IC50 [1] was > 1000 µM, the IC50 [2] was 46 µM and the IC50 [3] was 43 µM. For the same compound, the “EtBr displacement from DNA” value ([4]; pH 7.4) was “No EtBr displacement up to 100 μM”, the IC50 [5, 19] was 861 ± 29 µM and the IC50 [6] was 29 µM. The IC50 [7] was > 500 µM, the IC50 [8] was 42 µM and the IC50 [9] was 92 µM. It also gave an IC50 [10] of 28 µM, an IC50 [11] of 25 ± 5.5 µM and an IC50 [12] of 40 µM. It also gave an IC50 [13] of 37 µM, an IC50 [14] of 35 µM and an IC50 [15] of 33 µM.

For `COc1cccc(C(=O)N2CCc3c([nH]c4ccccc34)C2)c1` [CA199], the IC50 [1] was > 1000 µM, the IC50 [2] was 8 µM and the IC50 [3] was 8.5 µM. The “EtBr displacement from DNA” value ([4]; pH 7.4) was “No EtBr displacement up to 100 μM”, the IC50 [5, 19] was 766 ± 33 µM and the IC50 [6] was 6.2 µM. The IC50 [7] was > 500 µM, the IC50 [8] was 13.1 µM and the “phase of cell cycle block in Calu-1 cells” value [16] was “blocks only at the G0/G1 phase”. The IC50 [9] was 47 µM, the IC50 [10] was 3.5 µM and the IC50 [11] was 24.4 ± 4 µM. It also gave an IC50 [12] of 8.2 µM, an IC50 [13] of 6.5 µM and an IC50 [14] of 4.5 µM. It also gave an IC50 [15] of 7.1 µM.

In the case of `CC(C)(C)c1ccc(C(=O)N2CCc3c([nH]c4ccccc34)C2)cc1` [CA211], the IC50 [1] is reported as > 1000 µM, the IC50 [2] is reported as 31 µM and the IC50 [3] is reported as 29 µM. The “EtBr displacement from DNA” value ([4]; pH 7.4) was “No EtBr displacement up to 100 μM”, the IC50 [5, 19] was 720 ± 24 µM and the IC50 [6] was 22 µM. For the same compound, the IC50 [7] was > 500 µM, the IC50 [8] was 32 µM and the IC50 [9] was 54 µM. The IC50 [10] was 25 µM, the IC50 [11] was 44 ± 3 µM and the IC50 [12] was 35 µM. It also gave an IC50 [13] of 27 µM, an IC50 [14] of 30 µM and an IC50 [15] of 29 µM.

With `O=C1c2ccccc2-[n+]2ccc3c([nH]c4ccccc43)c21` [Fascaplysin, fascaplysin, reference compound] the IC50 [1] was > 250 µM, the IC50 [2] was 0.69 µM and the IC50 [3] was 0.88 µM. The “EtBr displacement from DNA” value ([4]; pH 7.4) was “Displaces EtBr at 1 μM”, the “EtBr displacement from DNA” value ([4]; pH 7.4, listed as fascaplysin) was “readily dislodges the bound EtBr” and the IC50 [17] was ~0.35 µM. For the same compound, the IC50 [5] was > 250 µM, the IC50 [7] was > 250 µM and the IC50 [8] was 0.92 µM. For the same compound, the IC50 [9] was 1.3 µM, the “state of relaxed (negatively supercoiled) plasmid DNA after treatment” value ([18]; relaxed pBluescript DNA as substrate, BPT up to 100 μM, fascaplysin 1 μM) was “does not remain intact” and the “hindrance of topoisomerase-I catalysed DNA relaxation” value ([18]; supercoiled pBluescript DNA, fascaplysin 10 and 1 µM, BPT 10 and 100 µM) was “hinder topoisomerase-I catalysed DNA relaxation”. The IC50 [15] was 0.88 µM.
